# Read-outs that look alike come from different tables or passages of the source.
# Columns and labels:
# SARS-CoV-2 M^pro = conditions: read-out: Exp. EC50; listed under SARS-CoV-2 Mpro; cited from earlier work
# SARS-CoV M^pro = conditions: read-out: IC50, SARS-CoV Mpro inhibitor; cited from earlier work
# hCoV-229E = test: CPE-based antiviral assay (CellTiter-Glo cell viability as surrogate of CPE) in MRC5 cells infected with hCoV-229E; conditions: Human coronavirus 229E; for EC50: read-out: EC50, inhibition of hCoV-229E replication
# [1] = target: Anopheles gambiae acetylcholinesterase (AgAChE); conditions: read-out: IC50, AgAChE inhibitor; cited from earlier work
# HIV-1 protease = target: HIV-1 protease; design: method as in doi:10.1039/c39910000110; conditions: read-out: Ki, HIV protease inhibitor; cited from earlier work
# in vitro = conditions: human
# [2] = target: bovine pancreatic α-chymotrypsin; design: method as in PMID 2353815, PMID 3527255; conditions: read-out: Ki, α-chymotrypsin inhibitor; cited from earlier work
smiles,measurement,setting,value
Cc1cc(C(=O)N[C@@H](C)C(=O)N[C@H](C(=O)N[C@@H](CC(C)C)C(=O)N[C@H](/C=C\C(=O)OCc2ccccc2)C[C@@H]2CCNC2=O)C(C)C)no1 [N3],EC50,SARS-CoV-2 M^pro,16.8 ± 1.7 µM
"CC(C)CC(NC(=O)OCc1ccccc1)C(=O)NC(Cc1ccccc1)C(O)(O)C(F)(F)F (stereo not drawn) [compound 7, Z-Leu-Phe-CF3]",IC50,SARS-CoV M^pro,10 µM
"CC(C)CC(NC(=O)OCc1ccccc1)C(=O)NC(CCc1ccccc1)C(O)(O)C(F)F (stereo not shown) [compound 8, Z-Leu-Homophe-CHF2]",EC50,"hCoV-229E; MRC5, 72 h",12.9 ± 1.22 µM
same,EC90,"hCoV-229E; MRC5 cells, 100 PFU/well, 72 h p.i., CellTiter-Glo, read-out: EC90, inhibition of hCoV-229E replication",38.6 ± 0.67 µM
CC(C)(C)c1cccc(C(=O)C(F)F)c1 [compound 1],IC50,[1],6.05 nM
CC(C)C(NC(=O)OCc1ccccc1)C(=O)NC(Cc1ccccc1)C(=O)C(F)(F)C(Cc1ccccc1)NC(=O)C(NC(=O)OCc1ccccc1)C(C)C (stereo not shown) [compound 6],Ki,HIV-1 protease,0.1 nM
CC(C)n1cc(C(=O)C(F)F)cn1 [compound 2],IC50,[1],802 nM
CCC(CC)COC(=O)[C@H](C)N[P@](=O)(OC[C@H]1O[C@@](C#N)(c2ccc3c(N)ncnn23)[C@H](O)[C@@H]1O)Oc1ccccc1 [remdesivir],CC50,in vitro,> 10 µM
same,EC50,"hCoV-229E; MRC5 cells, 100 PFU/well, 72 h p.i., CellTiter-Glo",0.034 ± 0.0025 µM
"CC(=O)NC(CC(C)C)C(=O)NC(Cc1ccccc1)C(=O)C(F)F (stereo not drawn) [compound 4, Ac-Leu-Phe-CHF2]",Ki,[2],25 µM

# — PMC7866854, “Pseudo-Dipeptide Bearing α,α-Difluoromethyl Ketone Moiety as Electrophilic Warhead with Activity against Coronaviruses” (International Journal of Molecular Sciences, 2021)
